According to US8796313B2, “Substituted dihydroisoindolones as allosteric modulators of glucokinase” (Janssen Pharmaceutica N.V., priority 2005, dated 2014):

Target: T1, human pancreas Glucokinase (GK) (Homo sapiens, UniProt P35557)
T1 construct: His6; made in house; host or cells: Escherichia coli
T1 sequence (P35557 1-465): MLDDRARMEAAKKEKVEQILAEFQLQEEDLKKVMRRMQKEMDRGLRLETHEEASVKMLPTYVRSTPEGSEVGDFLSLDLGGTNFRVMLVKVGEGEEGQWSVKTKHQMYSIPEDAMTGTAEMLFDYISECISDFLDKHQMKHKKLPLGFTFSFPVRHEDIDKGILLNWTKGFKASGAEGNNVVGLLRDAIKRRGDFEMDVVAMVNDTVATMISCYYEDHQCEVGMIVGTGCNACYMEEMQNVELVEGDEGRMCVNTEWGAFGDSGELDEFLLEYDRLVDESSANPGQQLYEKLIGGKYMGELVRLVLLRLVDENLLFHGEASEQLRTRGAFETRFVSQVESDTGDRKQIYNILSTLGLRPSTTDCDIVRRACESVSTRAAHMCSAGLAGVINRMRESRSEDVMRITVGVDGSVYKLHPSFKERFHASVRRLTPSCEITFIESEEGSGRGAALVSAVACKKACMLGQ
Test: Glucokinase enzyme assay, pancreas GK
Assay type: biochemical
Settings: for EC50: concentration that produces 50% activation above vehicle control; for EC100%: concentration that produces 100% activation above vehicle control; for activation at 50 µM: increase in GK activity above vehicle control, compound 50 μM, 12 mM glucose; for % Activation @ 5 μM: cell states @ 5 μM instead of the head's 50 μM
Excerpt: An enzymatic Glucokinase (GK) assay using purified recombinant human liver/pancreas enzyme was used to evaluate the effects of potential small molecule modulators.
In this assay, GK catalyzes glucose phosphorylation in the presence of ATP. The product of this reaction, glucose-6-phosphate, was then oxidized by an excess of glucose-6-phosphate dehydrogenase to produce gluconate-6-phosphate with concomitant reduction of nicotinamide adenine dinucleotide (NAD). […] Human GK (Liver/Pancreas) was expressed in Escherichia coli as a (His) 6-tagged fusion protein and was purified by metal chelate affinity chromatography. The assay was performed in a final incubation volume of 80 μl in a 96-well clear low UV absorption plates. The incubation mixture consisted of 25 mM HEPES, 2 mM MgSO4, 1 mM dithiothreotol (DTT), 1 mg/mL bovine serum albumin (BSA), 1 mM ATP, 1 mM NAD, and 12 mM glucose, 10 units per mL glucose-6-phosphate dehydrogenase, and +/−300 ng per mL GK. For determination of the affinity (Km) and Vmax, different concentrations of glucose ranging from 0.5 mM to 40 mM were used in the assay; see Grimsby, J., Sarabu, R.; Grippo, J. F.; et. al. Science 2003, 301, 370-373. […] EC50% (μM) was calculated as the effective concentration of the compound that produces 50% activation above the vehicle control, and EC100% (μM) was calculated as the effective concentration of the compound that produces 100% activation above the vehicle control.

SMILES	EC50	EC100%	activation at 50 µM	% Activation @ 5 μM
O=C(CCC1c2c(F)cccc2C(=O)N1Cc1ccc(F)cc1)Nc1ccc(-c2ccccc2)cn1 (stereo not shown) [Compound 31, 3-[7-Fluoro-2-(4-fluoro-benzyl)-3-oxo-2,3-dihydro-1H-isoindol-1-yl]-N-(5-phenyl-pyridin-2-yl)-propionamide]	1900 nM	300 µM	64.1%	
O=C(CCC1c2c(F)cccc2C(=O)N1Cc1ccc(F)cc1)Nc1ccc(Br)cn1 (stereo not shown) [Compound 32, N-(5-Bromo-pyridin-2-yl)-3-[7-fluoro-2-(4-fluoro-benzyl)-3-oxo-2,3-dihydro-1H-isoindol-1-yl]-propionamide]	13 nM	0.39 µM	147%	
O=C(CCC1c2c(F)cccc2C(=O)N1Cc1ccc(F)cc1)Nc1ccc(-c2ccc(F)cc2)cn1 (stereo not shown) [Compound 33, 3-[7-Fluoro-2-(4-fluoro-benzyl)-3-oxo-2,3-dihydro-1H-isoindol-1-yl]-N-[5-(4-fluoro-Phenyl)-pyridin-2-yl]-propionamide]	488 nM	4.5 µM	177%	
NS(=O)(=O)c1ccc(NC(=O)CCC2c3c(F)cccc3C(=O)N2Cc2ccc(F)cc2)nc1 (stereo not shown) [Compound 34, 3-[7-Fluoro-2-(4-fluoro-benzyl)-3-oxo-2,3-dihydro-1H-isoindol-1-yl]-N-(5-sulfamoyl-pyridin-2-yl)-propionamide]	407 nM	4.3 µM	142%	
O=C(CCC1c2cccc(Cl)c2C(=O)N1Cc1ccc(F)cc1)Nc1ccccn1 (stereo not shown) [Compound 35, 3-[4-chloro-2-(4-fluoro-benzyl)-3-oxo-2,3-dihydro-1H-isoindol-1-yl]-N-pyridin-2-yl-propionamide]	230 nM	0.75 µM	306%	
O=C(CCC1c2c(Cl)cccc2C(=O)N1Cc1ccc(F)cc1)Nc1ccccn1 (stereo not shown) [Compound 36, 3-[7-Chloro-2-(4-fluoro-benzyl)-3-oxo-2,3-dihydro-1H-isoindol-1-yl]-N-pyridin-2-yl-propionamide]	143 nM	0.411 µM	342%	
CC(=O)c1ccc(NC(=O)CCC2c3c(F)cccc3C(=O)N2Cc2ccc(F)cc2)nc1 (stereo not shown) [Compound 37, N-(5-Acetyl-pyridin-2-yl)-3-[7-fluoro-2-(4-fluoro-benzyl)-3-oxo-2,3-dihydro-1H-isoindol-1-yl]-propionamide]	54 nM	0.225 µM	259%	
O=C(CCC1c2cccc(Cl)c2C(=O)N1Cc1ccc(F)cc1)Nc1ccc(Br)cn1 (stereo not shown) [Compound 38, N-(5-Bromo-pyridin-2-yl)-3-[4-chloro-2-(4-fluoro-benzyl)-3-oxo-2,3-dihydro-1H-isoindol-1-yl]-propionamide]	173 nM	0.615 µM	309%	
O=C(CCC1c2c(Cl)ccc(Cl)c2C(=O)N1Cc1ccc(F)cc1)Nc1ccccn1 (stereo not shown) [Compound 39, 3-[4,7-Dichloro-2-(4-fluoro-benzyl)-3-oxo-2,3-dihydro-1H-isoindol-1-yl]-N-pyridin-2-yl-propionamide]	433 nM	2.5 µM	206%	
O=C(CCC1c2c(F)cccc2C(=O)N1Cc1ccc(F)cc1)Nc1cccc[n+]1[O-] (stereo not shown) [Compound 40, 3-[7-Fluoro-2-(4-fluoro-benzyl)-3-oxo-2,3-dihydro-1H-isoindol-1-yl]-N-(1-oxy-pyridin-2-yl)-propionamide]			52.3%	
Cc1ccc(NC(=O)CCC2c3c(F)cccc3C(=O)N2Cc2ccc(F)cc2)nc1 (stereo not shown) [Compound 41, 3-[7-Fluoro-2-(4-fluoro-benzyl)-3-oxo-2,3-dihydro-1H-isoindol-1-yl]-N-(5-methyl-pyridin-2-yl)-propionamide]	54 nM	0.48 µM	191%	
O=C(CCC1c2c(F)cccc2C(=O)N1Cc1ccc(-n2cccc2)cc1)Nc1ccc(F)cn1 (stereo not shown) [Compound 42, 3-[7-Fluoro-3-oxo-2-(4-pyrol-1-yl-benzyl)-2,3-dihydro-1H-isoindol-1-yl]-N-(5-fluoro-pyridin-2-yl)-propionamide]	182 nM	1.7 µM	168%	
O=C(CCC1c2c(F)cccc2C(=O)N1Cc1ccc(F)cc1)Nc1ccc(Cl)nn1 (stereo not shown) [Compound 43, N-(6-Chloro-pyridazin-3-yl)-3-[7-fluoro-2-(4-fluoro-benzyl)-3-oxo-2,3-dihydro-1H-isoindol-1-yl]-Propionamide]	629 nM	5.2 µM	152%	
O=C(CCC1c2c(F)cccc2C(=O)N1Cc1ccc(F)cc1)Nc1ccc(Cl)cn1 (stereo not shown) [Compound 44, N-(5-Chloro-pyridin-2-yl)-3-[7-fluoro-2-(4-fluoro-benzyl)-3-oxo-2,3-dihydro-1H-isoindol-1-yl]-propionamide]	71 nM	0.375 µM		168 @ 5 μM %
CCOC(=O)/C=C/c1ccc(NC(=O)CCC2c3c(F)cccc3C(=O)N2Cc2ccc(F)cc2)nc1 (stereo not shown) [Compound 45, 3-(6-{3-[7-Fluoro-2-(4-fluoro-benzyl)-3-oxo-2,3-dihydro-1H-isoindol-1-yl]-propionylamino}-pyridin-3-yl)-acrylic acid ethyl ester]	125 nM	0.813 µM		138 @ 5 μM %
O=C(CCC1c2c(F)cccc2C(=O)N1Cc1ccc(F)cc1)Nc1ccc(C(=O)OCc2ccccc2)cn1 (stereo not shown) [Compound 46, 6-{3-[7-Fluoro-2-(4-fluoro-benzyl)-3-oxo-2,3-dihydro-1H-isoindol-1-yl]-propionylamino}-nicotinic acid benzyl ester]	219 nM	1.2 µM		133 @ 5 μM %
N#Cc1ccc(NC(=O)CCC2c3c(F)cccc3C(=O)N2Cc2ccc(F)cc2)nc1 (stereo not shown) [Compound 47, N-(5-Cyano-pyridin-2-yl)-3-[7-fluoro-2-(4-fluoro-benzyl)-3-oxo-2,3-dihydro-1H-isoindol-1-yl]-propionamide]	420 nM	15 µM	114%	
CS(=O)(=O)c1ccc(NC(=O)CCC2c3c(F)cccc3C(=O)N2Cc2ccc(F)cc2)nc1 (stereo not shown) [Compound 48, 3-[7-Fluoro-2-(4-fluoro-benzyl)-3-oxo-2,3-dihydro-1H-isoindol-1-yl]-N-(5-methanesulfonyl-pyridin-2-yl)-propionamide]	17000 nM		62.8%	
CN(C)c1ccc(CN2C(=O)c3cccc(F)c3C2CCC(=O)Nc2ccc(C(=O)O)cn2)cc1 (stereo not shown) [Compound 49, 6-{3-[2-(4-Dimethylamino-benzyl)-7-fluoro-3-oxo-2,3-dihydro-1H-isoindol-1-yl]-propionylamino}-nicotinic acid]	60 nM	0.34 µM	212%	
COC(=O)c1ccc(NC(=O)CC[C@@H]2c3c(F)cccc3C(=O)N2Cc2ccc(F)cc2)nc1 [Compound 50, (R)-6-{3-[7-Fluoro-2-(4-fluoro-benzyl)-3-oxo-2,3-dihydro-1H-isoindol-1-yl]-propionylamino}-nicotinic acid methyl ester]			38.6%	
COC(=O)c1ccc(NC(=O)CC[C@H]2c3c(F)cccc3C(=O)N2Cc2ccc(F)cc2)nc1 [Compound 51, (S)-6-{3-[7-Fluoro-2-(4-fluoro-benzyl)-3-oxo-2,3-dihydro-1H-isoindol-1-yl]-propionylamino}-nicotinic acid methyl ester]	8.9 nM	0.082 µM	223%	
